Experimental data from US4372948A, “Derivative of saccharide and physiologically active agent containing the same” (Kureha Kagaku Kogyo Kabushiki Kaisha, priority 1980, dated 1983).

Experiments:
[1] = in vivo; conditions: mouse, in vivo, po, mice, 7 days observation, read-out: LD50, acute oral toxicity
[2] = test system: level of blood sugar; assay: Anti-hyperglycemia activity (reduction of blood sugar level); assay type: in vivo, rat (Wistar, streptozotocin); conditions: oral, 300 mg/kg
Procedure: A group of Wistar rats to which at first streptozotocin was interperitoneally administered at a rate of 60 mg/kg and of which the positivity of glycosuria was confirmed after a week of the administration and to which regular insulin was further administered and of which the reduction of levels of glucose in urine and blood was once confirmed, however, of which hyperglycemia and hyperglycosuria were again confirmed after a few days was chosen and used as model animals of glycosuria in the following test. After orally administering each of the present compounds to the model animals at a dose of 300 mg/kg body weight, as a solution or dispersion in distilled water, the blood was collected two times, respectively after 3 and 6 hours of the administration.

[3] = test system: blood pressure; assay: Anti-hypertension activity (reduction of blood pressure); assay type: in vivo, rat (spontaneous hypertension); conditions: oral, 300 mg/kg
Procedure: Rats of spontaneous hypertension were orally administered with each of the present compounds as a solution or dispersion in distilled water at a dose rate of 300 mg/kg body weight. After 3 and 6 hours of the administration, the blood pressure of each rat was determined, and the difference between the above-determined value and the value just before the administeration was used as the index of the activity of reducing the blood pressure of the compound.

[4] = test system: Sarcoma-180; assay: Anti-tumour activity against Sarcoma-180; assay type: in vivo, mouse (ICR-JCL); conditions: Mus musculus, Sarcoma-180, po, 600 h, 10 times every other day, tumour weight on 25th day, read-out: Antitumour activity, inhibiting rate (I.R.)
Procedure: Sarcoma-180 was transplanted into the axillary part of ICR-JCL mice at a rate of 1×10^6 cells/animal, and after 24 hours of transplantation, each of the present compounds as a solution or dispersion in sterilized physiological saline solution was orally administered to each of the transplanted mice 10 times every other day at a dose of 500 mg/kg/time. On 25th day of the transplantation, tumour node(s) were extirpated from all the mice to determine the weight of the tumour nodes.
Antitumour activity (activity of inhibiting the proliferation of the transplanted sarcoma) of each of the present compounds was derived by the following formula and shown in Table 6:
Antitumour activity (Inhibiting rate, I.R.)=(1-T/C)×100(%).
T represents the total weight of tumour nodes of the group of mice transplanted and administered with the present compound, and
C represents the total weight of tumour nodes of the group of mice transplanted, however, not administered with any agents.

[5] = test system: total cholesterol; assay: Anti-hyperlipemia activity, total cholesterol in blood; assay type: in vivo, rabbit (Japanese white male); conditions: oral, 300 mg/kg once; for Reduction of cholesterol level after 3 hrs.: negative = raising
Procedure: (§1) Japanese white male rabbits were fed for 3 months with a solid diet containing 1% of cholesterol taken ad lib, and after confirming the raised lipid content of the serum of the rabbits, they were utilized as model animals suffering from experimental arteriosclerosis. Each of the present compounds was administered orally as a solution or dispersion in distilled water to the experimental animals of each group at a dose rate of 300 mg/kg once, and blood samples were taken at a predetermined time interval from the auricular vein of each animal. The content of cholesterol in the blood specimen was traced as the time passed by, with an enzymatic method, and the content of beta-lipoprotein in the same blood specimen was traced with a colorimetry. Each value in Table 7 is the difference between the level just before administration and the level after 3 or 6 hours of the administration.

[6] = test system: beta-lipoprotein; assay: Anti-hyperlipemia activity, beta-lipoprotein in blood; assay type: in vivo, rabbit (Japanese white male); conditions: oral, 300 mg/kg once
Procedure: as §1

[7] = test system: carrageenin edema; assay: Anti-Carrageenin edema activity; assay type: in vivo, rat; conditions: Rattus norvegicus, po, 1000 mg/kg once, read-out: I.R. against carrageenin edema
Procedure: After orally administering each of the present compounds forcibly to each group of rats, composed of 10 animals, as a solution or dispersion in distilled water at a dose of 1000 mg/kg once, 0.1 ml of an aqueous dispersion of 1% carrageenin in aqueous physiological saline solution was injected into the foot pad of the right hind leg of the administered animal following Van Arman et al. (1963). Thereafter, the thickness of the foot pad was measured at a time interval to find the rate of inhibiting of the swelling of the foot pad according to the following formula:
(§2) Rate of inhibition (I.R.) (%)=(1-T/C)×100
T means the average volume of the foot pad of the animals administered with one of the present compounds and carrageenin, and
C means that of the animal not administered with the present compound, however, administered with carrageenin.

[8] = test system: cotton pellet granuloma; assay: Anti-granuloma activity (cotton pellet); assay type: in vivo, rat; conditions: Rattus norvegicus, po, 192 h, 7 days, read-out: I.R. against cotton pellet edema
Procedure: Following the method of Winter et al. (1963), each two cotton wool pellets, each weighing 30±1 mg, were implanted into the back of each rats of groups of rats, each group consisting of 6 animals, at the positions of mutually symmetrical concerning the median line of the rat. To these groups of the thus operated rats, the present compounds were respectively administered orally and forcibly as a solution or dispersion in distilled water for 7 continuous days, once a day at a dose of 1000 mg/kg/day. On 8th day of the implantation, the granuloma was extirpated and the dry weight of the granuloma was measured, the rate of inhibiting the proliferation of granuloma being obtained as in (5-1) being shown in Table 8.

[9] = test system: exudation; assay: Anti-exudation activity (air pouch, croton oil); assay type: in vivo, rat; conditions: Rattus norvegicus, po, 144 h, 5 days, read-out: I.R. against exudation
Procedure: Following the method of Baris et al. (1965), air was injected subcutaneously into the back of groups of rats, each group consisting of 6 animals to make an air pouch, and 0.5 ml of sesame oil containing 1% by weight of croton oil was injected into the air pouch. Each of the present compounds was orally administered forcibly to each of the groups of rats as a solution or dispersion in distilled water at a dose rate of 1000 mg/kg/day for continued five days. The amount of liquid exudated into the air pouch was measured on 6th day of the operation. The rate of inhibiting the exudation of the liquid was obtained by the same manner as in (5-2) and the results are shown also in Table 8.

[10] = test system: pseudo-escaping reaction to tail pressure; assay: Analgetic activity against mechanical stimulation of pressure; assay type: in vivo, mouse (ICR female); conditions: oral, 1000 mg/kg
[11] = test system: acetic acid writhing; assay: Analgetic activity against chemical stimulation of acetic acid (writhing); assay type: in vivo, mouse (ICR female); conditions: Mus musculus, po, 30 min before 0.6% acetic acid, read-out: I.R. of writhing
Source text: as §2
T represents the average number of writhing of the group of mice administered with the present compound and injected with acetic acid, and C represents the average number of writhing of the group of mice only injected with acetic acid (control).

[12] = test system: pyrexia (Saccharomyces cerevisiae); assay: Anti-pyrexia activity (yeast-induced); assay type: in vivo; conditions: Rattus norvegicus, oral, read-out: Rate of inhibiting pyrexia (I.R.)
Procedure: Following the method of Winter et al. (1961), an aqueous dispersion of 20% by weight of Saccharomyces cerevisiae was subcutaneously injected into groups of rats, each group consisting of 6 animals, and after 10-hour fasting, 1000 mg/kg of each of the present compounds was orally administered to the rat as a solution of dispersion in distilled water, and then the rectal temperature of the rat was measured at a predetermined interval of time to find the lowest temperature.
The anti-pyrexia activity of each compound was obtained from the following formula: […]
Anti-pyrexia activity represented by the rate of inhibition (I.R.)
C2 represents the average rectal temperature of negative control (non-treatment), not injected with the yeast and not administered with the present compound,
C1 represents the average temperature of positive control, injected with the yeast and not administered with the compound and T represents the temperature of tested animals, injected with the yeast and administered with the present compound.

SMILES	LD50 at 168 h [1] [mg/kg]	Reduced level of blood sugar after 3 hrs. [2] [mg/dL]	Reduced level of blood sugar after 6 hrs. [2] [mg/dL]	Reduced level of blood pressure after 3 hrs. [3] [mm Hg]	Reduced level of blood pressure after 6 hrs. [3] [mm Hg]	inhibition in vivo at 500 mg/kg [4] [%]	Reduction of cholesterol level after 3 hrs. [5] [mg/dL]	Reduction of cholesterol level after 6 hrs. [5] [mg/dL]	Reduction of beta-lipoprotein level after 3 hrs. [6] [mg/dL]	Reduction of beta-lipoprotein level after 6 hrs. [6] [mg/dL]	inhibition in vivo at 1000 mg/kg [7] [%]	inhibition in vivo at 1000 mg/kg/day [8] [%]	inhibition in vivo at 1000 mg/kg/day [9] [%]	Pseudo-escapting reaction pressure [10] [mmHg]	Pseudo-escapting reaction time [10] [s]	inhibition in vivo at 1000 mg/kg [11] [%]	inhibition in vivo at 1000 mg/kg [12] [%]
O=C(Oc1ccccc1)c1ccc(NC2O[C@H](CO)[C@@H](O[C@H]3O[C@H](CO)[C@@H](O[C@H]4O[C@H](CO)[C@@H](O)[C@H](O)[C@H]4O)[C@H](O)[C@H]3O)[C@H](O)[C@H]2O)cc1 (some centres unmarked) [Compound 10, phenyl p-aminobenzoate-N-maltotrioside]	12400	99	106	18	18	39	-5	33	106	111	6.6	19.6	7.5	86	36	30	41
C[C@@H]1OC(Nc2cccc(C(=O)OCc3ccccc3)c2)[C@@H](O)[C@H](O)[C@@H]1O (stereo partly drawn) [Compound 11, benzyl m-aminobenzoate-N-L-fucoside]	9700	75	88	21	25	40	-1	50	98	109	22.8	4.4	11	74	35	17	29
O=C(OCc1ccccc1)c1cccc(NC2O[C@H](CO)[C@@H](O[C@@H]3O[C@H](CO)[C@H](O)[C@H](O)[C@H]3O)[C@H](O)[C@H]2O)c1 (some centres unmarked) [Compound 12, benzyl m-aminobenzoate-N-lactoside]	11500	52	95	16	18	37	7	48	121	124	18.7	8.4	10.7	90	42	33	17
O=C(OCc1ccccc1)c1ccc(NC2C[C@H](O)[C@H](O)CO2)cc1 (stereo partly drawn) [Compound 13, benzyl p-aminobenzoate-N-D-deoxyriboside]	9200	108	113	20	21	38	4	35	135	144	7	4.2	23.5	82	40	24	39
